Source: patent US20230111310A1, “CARBOXYLIC ACID DERIVATIVE-SUBSTITUTED IMINO ARYL COMPOUND, PREPARATION METHOD THEREFOR, HERBICIDAL COMPOSITION AND USE THEREOF” (Qingdao Kingagroot Chemical Compound Co., Ltd., priority 2020, published 2023)
Where two headings read alike, the source gives them in different places.

Tests used:
Type in all cases: in vivo
[1] = system: Veronica didyma Tenore; test: Composition activity test, post-emergence foliage spray
Method: (§1) are as follows, and the others were purchased from reagent companies. The technical materials were all dissolved in acetone and diluted with an aqueous solution containing 0.1% emulsifier Tween-80. The dilution is performed as required.
(§2) Weeds were cultivated by a pot culture method. […] Full and uniform weed seeds were selected, soaked in warm water at 25° C. for 6 hours, and germinated in a 28° C. biochemical incubator (darkness). The weed seeds that had just germinated were evenly placed on the surface of the soil and then covered with 0.5-1 cm soil according to the sizes of seeds.
(§3) The culture was carried out in a controllable sunlight greenhouse at 20 to 30° C., in natural light, and relative humidity of 57% to 72%.
(§4) 3 pots with 20 weed seeds per pot were treated in one treatment with 4 replications per treatment.
(§5) The agents were used for only once in the experiment. In the stage of weeds with 1.5-2 leaves, the weeds were thinned out to maintain 10 weeds per pot and 30 weeds for each treatment, then continued to be cultured to Conyza Canadensis 10 cm in height, other weeds 3-4 leaves stage and treated.
(§6) The well-cultured weeds were evenly placed on a platform with an area of 0.5 m^2, and a solution of agents was sprayed on the stems and leaves thereof by the 3WP-2000-type walking spray tower at a dosage of 450 kg/ha and at a spray pressure of 0.3 MPa. After all the solution was sprayed, the valve was closed. After 30 seconds, the door of the spray tower was opened, and the nutritional bowl was taken out. Then the valve was opened, and the spray tube was cleaned by spraying 50 ml of water. After the treatment, the weeds were routinely cultured in a greenhouse.
(§7) A method for investigating absolute number was employed, wherein whole seedlings of survival weeds were cut off with a blade along the soil surface, and the fresh weight of the weeds was weighed with an analytical balance. For dead weeds, the fresh weight thereof was zero.
(§8) The investigation was performed after 21 days of the treatment for only once.
(§9) An optimum ratio of the two active ingredients was determined by the actual control effect, characteristics of herbicides, and balance of a corresponding formula. Wherein, in the formula, X represented the fresh weight inhibition rate of the active ingredient A in a dosage of P, and Y represented the fresh weight inhibition rate of the active ingredient B in a dosage of Q. The statistical results were shown in the table 6.

[2] = system: Echinochloa crusgalli; test: Weeding effect in post-emergence stage; conditions: Dose 15 g/ha; fresh weight control rate level
Outline: (§10)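 Compound, dissolved in acetone and diluted in water with Tween 80 plus methyl oleate EC (1.5 liter/ha), is sprayed onto 2-3 leaf potted plants. Rates span 7.5–500 g/ha. After 3 weeks of greenhouse culture, weeding effect is counted as the mean of triplicates.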

[3] = system: Alopecurus japonicus; test: Weeding effect in post-emergence stage; conditions: Dose 15 g/ha; fresh weight control rate level
Outline: as §10

[4] = system: Abutilon theophrasti; test: Weeding effect in post-emergence stage; conditions: Dose 15 g/ha; fresh weight control rate level
Outline: as §10

[5] = system: Digitaria sanguinalis; test: Weeding effect in post-emergence stage; conditions: Dose 15 g/ha; fresh weight control rate level
Outline: as §10

[6] = system: Eleusine indica; test: Weeding effect in post-emergence stage; conditions: Dose 15 g/ha; fresh weight control rate level
Outline: as §10

[7] = system: Setaria viridis; test: Weeding effect in post-emergence stage; conditions: Dose 15 g/ha; fresh weight control rate level
Outline: as §10

[8] = system: Veronica didyma Tenore; test: Weeding effect in pre-emergence stage; conditions: 30 g/ha, 4 weeks
Outline: (§11)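 Pots were kept in the greenhouse for 4 weeks and then rated for growth control on activity-level criteria. Spraying took place immediately after sowing at application rates of 500 to 7.5 g/ha, using an acetone/tween 80 formulation diluted with water, on seeds under 0.5-2 cm of soil.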

[9] = system: Capsella bursa-pastoris; test: Weeding effect in pre-emergence stage; conditions: 30 g/ha, 4 weeks
Outline: as §11

[10] = system: Abutilon theophrasti; test: Weeding effect in pre-emergence stage; conditions: 30 g/ha, 4 weeks
Outline: as §11

[11] = system: Descurainia sophia; test: Weeding effect in pre-emergence stage; conditions: 30 g/ha, 4 weeks
Outline: as §11

[12] = system: Amaranthus retroflexus; test: Weeding effect in pre-emergence stage; conditions: 30 g/ha, 4 weeks
Outline: as §11

[13] = system: Setaria viridis; test: Weeding effect in pre-emergence stage; conditions: 30 g/ha, 4 weeks
Outline: as §11

[14] = system: corn; test: Pre-emergence stage, crop selectivity; conditions: 30 g/ha, 4 weeks
Outline: as §11

[15] = system: Peanut; test: Pre-emergence stage, crop selectivity; conditions: 30 g/ha, 4 weeks
Outline: as §11

[16] = system: cotton; test: Pre-emergence stage, crop selectivity; conditions: 30 g/ha, 4 weeks
Outline: as §11

[17] = system: Soybeans; test: Pre-emergence stage, crop selectivity; conditions: 30 g/ha, 4 weeks
Outline: as §11

[18] = system: Eclipta prostrate; test: Composition activity test, post-emergence foliage spray
Method: as §1, §2, §3, §4, §5, §6, §7, §8, §9

[19] = system: Lithospermum arvense; test: as above
Method: as §1, §2, §3, §4, §5, §6, §7, §8, §9

[20] = system: Malachium aquaticum; test: as above; conditions: B 9 g a.i./ha
Method: as §1, §2, §3, §4, §5, §6, §7, §8, §9

[21] = Veronica polita, foliar, read-out: Control effect (%) of B applied alone (B)
[22] = Eclipta, foliar, read-out: Control effect (%) of B applied alone (B)

O=C(O)COc1ccc(Cl)cc1Cl [2,4-dichlorophenoxy acetic acid]
pest or weed control at 150 g/ha [1, 21]: 32.6%

Cc1cc(Cl)ccc1OCC(=O)O [2-methyl-4-chlorophenoxy acetic acid, 2-methyl-4-chlorophenoxyacetic acid]
pest or weed control at 150 g/ha [1, 21]: 39.3%

COC(=O)C(C)(C)O/N=C/c1cc(-n2c(=O)cc(C(F)(F)F)n(C)c2=O)c(F)cc1Cl [Compound 433]
Weeding effect in post-emergence stage, Echinochloa crusgalli (level) [2]: 5 (Level 5: growth control rate is above 85%) | Weeding effect in post-emergence stage, Alopecurus japonicus (level) [3]: 5 (Level 5: growth control rate is above 85%) | Weeding effect in post-emergence stage, Abutilon theophrasti (level) [4]: 5 (Level 5: growth control rate is above 85%) | Weeding effect in post-emergence stage, Digitaria sanguinalis (level) [5]: 5 (Level 5: growth control rate is above 85%) | Weeding effect in post-emergence stage, Eleusine indica (level) [6]: 5 (Level 5: growth control rate is above 85%) | Weeding effect in post-emergence stage, Setaria viridis (level) [7]: 5 (Level 5: growth control rate is above 85%) | activity level (growth control rate) Veronica didyma Tenore [8]: 5 (Level 5: growth control rate is above 85%) | activity level (growth control rate) Capsella bursa-pastoris [9]: 5 (Level 5: growth control rate is above 85%) | activity level (growth control rate) Abutilon theophrasti [10]: 5 (Level 5: growth control rate is above 85%) | activity level (growth control rate) Descurainia sophia [11]: 5 (Level 5: growth control rate is above 85%) | activity level (growth control rate) Amaranthus retroflexus [12]: 5 (Level 5: growth control rate is above 85%) | activity level (growth control rate) Setaria viridis [13]: 5 (Level 5: growth control rate is above 85%) | plant damage level Corn [14]: 0 (Level 0: growth control rate is less than 5%) | plant damage level Peanut [15]: 0 (Level 0: growth control rate is less than 5%) | plant damage level Cotton [16]: 0 (Level 0: growth control rate is less than 5%) | plant damage level Soybeans [17]: 0 (Level 0: growth control rate is less than 5%)

C[C@@H](Oc1nc(F)c(Cl)c(N)c1Cl)C(=O)OCC1CCCO1 (stereo partly shown) [Cpd B2]
pest or weed control at 90 g/ha ([1]; Veronica polita, foliar, Veronica didyma Tenore, foliage, B 90 g a.i./ha, read-out: Control effect (%) of B applied alone (B)): 42.1%

CC(C)c1nn(C(=O)NC(C)(C)C)c(=O)n1N [amicarbazone]
Control effect (%) of B applied alone (B) ([18]; Eclipta prostrate, foliage, B 60 g a.i./ha): 43.7%

Nc1cc(Cl)nc(C(=O)O)c1Cl [aminopyralid]
Control effect (%) of B applied alone (B) ([1]; Veronica didyma Tenore, foliage, B 30 g a.i./ha): 32.2%

CC(C)N1C(=O)c2ccccc2NS1(=O)=O [bentazone]
pest or weed control at 150 g/ha ([18]; foliar, Eclipta prostrate, foliage, B 150 g a.i./ha, read-out: Control effect (%) of B applied alone (B)): 30.2%

CCC(C)n1c(=O)[nH]c(C)c(Br)c1=O (stereo not shown) [bromacil]
pest or weed control at 450 g/ha [18, 22]: 28.4%

N#Cc1cc(Br)c(O)c(Br)c1 [bromoxynil]
pest or weed control at 60 g/ha ([18]; foliar, Eclipta prostrate, foliage, B 60 g a.i./ha, read-out: Control effect (%) of B applied alone (B)): 41.2%

CCOC(=O)C(Cl)Cc1cc(-n2nc(C)n(C(F)F)c2=O)c(F)cc1Cl (stereo not shown) [carfentrazone-ethyl]
Control effect (%) of B applied alone (B) ([19]; B 4.5 g a.i./ha): 27.2%

Cc1ccc(NC(=O)N(C)C)cc1Cl [chlorotoluron]
pest or weed control at 225 g/ha ([18]; foliar, Eclipta prostrate, foliage, B 225 g a.i./ha, read-out: Control effect (%) of B applied alone (B)): 24.5%

O=C(O)c1nc(Cl)ccc1Cl [clopyralid]
pest or weed control at 45 g/ha ([1]; Veronica polita, foliar, Veronica didyma Tenore, foliage, B 45 g a.i./ha, read-out: Control effect (%) of B applied alone (B)): 28.9%

CCOC(=O)Nc1cccc(OC(=O)Nc2ccccc2)c1 [desmedipham]
pest or weed control at 300 g/ha [18, 22]: 16.2%

COc1c(Cl)ccc(Cl)c1C(=O)O [dicamba]
pest or weed control at 150 g/ha ([1]; Veronica polita, foliar, Veronica didyma Tenore, foliage, B 150 g a.i./ha, read-out: Control effect (%) of B applied alone (B)): 29.7%

COc1c(Cl)ccc(-c2nc(C(=O)OCc3ccccc3)c(Cl)c(N)c2F)c1F [florpyrauxifen benzyl]
Control effect (%) of B applied alone (B) ([1]; Veronica didyma Tenore, foliage, B 15 g a.i./ha): 50.3%

C#CCN1C(=O)COc2cc(F)c(N3C(=O)C4=C(CCCC4)C3=O)cc21 [flumioxazin]
Control effect (%) of B applied alone (B) ([19]; B 7.5 g a.i./ha): 29.4%

Nc1c(Cl)c(F)nc(OCC(=O)O)c1Cl [fluroxypyr]
pest or weed control at 60 g/ha ([1]; Veronica polita, foliar, Veronica didyma Tenore, foliage, B 60 g a.i./ha, read-out: Control effect (%) of B applied alone (B)): 39.3%

COC(=O)c1nc(-c2ccc(Cl)c(OC)c2F)cc(N)c1Cl [halauxifen-methyl]
Control effect (%) of B applied alone (B) ([1]; Veronica didyma Tenore, foliage, B 3 g a.i./ha): 35.6%

COC(=O)c1c(Cl)nn(C)c1S(=O)(=O)NC(=O)Nc1nc(OC)cc(OC)n1 [halosulfuron methyl]
Control effect (%) of B applied alone (B) [20]: 36.4%
